In patent US8003692B2 (priority 2007, dated 2011):
“And” between values parts separate entries of the source, which are not always exact repeats. Identical values can stand only once. “Also recorded” adds a separate entry of the source. Like-named read-outs stand apart in the source and are kept apart here.

What was measured:
[1] = target: anthrax edema factor (EF) (Bacillus anthracis, UniProt P40136); assay: cell-based
[2] = test system: RAW 264.7 cells
[3] = test system: Cholera toxin (CT); settings: mouse, in vivo
[4] = test system: cholera toxin; format: cell-based, Vibrio cholerae
[5] = physchem; settings: organic solvent or mixture
[6] = test system: bacterial adhesion to HeLa cells; format: cell-based
[7] = test system: bacterial adhesion to Caco-2 cells; format: cell-based
[8] = test system: Enterotoxigenic E. coli (ETEC); settings: mouse, in vivo
[9] = test system: ETEC H10507 or other enteric bacteria; format: cell-based, E. coli and Salmonella

anthrax edema factor (EF), sequence (P40136 whole entry, looked up): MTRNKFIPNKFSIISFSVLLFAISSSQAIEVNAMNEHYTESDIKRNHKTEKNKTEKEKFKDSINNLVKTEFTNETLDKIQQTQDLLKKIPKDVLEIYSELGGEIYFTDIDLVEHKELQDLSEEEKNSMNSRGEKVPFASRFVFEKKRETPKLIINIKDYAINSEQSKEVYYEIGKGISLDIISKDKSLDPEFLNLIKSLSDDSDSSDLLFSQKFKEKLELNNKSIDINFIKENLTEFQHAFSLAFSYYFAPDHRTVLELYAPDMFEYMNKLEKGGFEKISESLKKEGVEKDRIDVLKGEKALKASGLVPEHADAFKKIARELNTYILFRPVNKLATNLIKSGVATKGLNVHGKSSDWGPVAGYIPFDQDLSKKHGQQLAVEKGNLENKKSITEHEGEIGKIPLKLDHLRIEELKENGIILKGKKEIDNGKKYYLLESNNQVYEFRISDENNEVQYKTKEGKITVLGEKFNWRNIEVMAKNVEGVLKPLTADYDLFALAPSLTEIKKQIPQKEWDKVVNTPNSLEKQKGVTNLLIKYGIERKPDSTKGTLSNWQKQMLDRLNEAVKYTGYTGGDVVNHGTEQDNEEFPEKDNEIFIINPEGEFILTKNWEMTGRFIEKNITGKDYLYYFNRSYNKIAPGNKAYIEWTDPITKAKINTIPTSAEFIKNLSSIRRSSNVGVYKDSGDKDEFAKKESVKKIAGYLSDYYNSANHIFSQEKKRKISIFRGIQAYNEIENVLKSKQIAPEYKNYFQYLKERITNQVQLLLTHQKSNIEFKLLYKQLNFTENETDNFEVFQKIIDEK

Which results are given for `COc1cccc([C@H]2Nc3ccc(C(=O)O)cc3[C@@H]3C=CC[C@H]23)c1` (stereo in doubt) [FII-1, 4-(3-methoxy-phenyl)-3a,4,5,9b-tetrahydro-3H-cyclopenta[c]quinoline-8-carboxylic acid]?
inhibition of EF / Edema Toxin induced cAMP production (in words) [1]: effective; also recorded: more active than PGE2-imidazole; IC50 ([1]; IC50 values): 1.8 to 7 µM; cytotoxicity in LDH assay (in words) [2]: no obvious cytotoxic effect; Reduction of fluid accumulation [3]: No*; Toxicity [3]: No; accumulation of intestinal fluid after experimental infection with CT (in words) [3]: did not cause a significant reduction in fluid accumulation; toxic effects in the animals (in words) [3]: Toxic effects were observed

Which “inhibition of cholera toxin induced cAMP (in words)” value [4] does the source give for `COc1cccc(C2=CC(=O)CC(c3ccco3)C2)c1` (centres unmarked) [FI-1, 5-Furan-2-yl-3-(3-methoxy-phenyl)-cyclohex-2-enone] here?
The value was “did not inhibit”.

What about the “inhibition of EF / Edema Toxin induced cAMP production (in words)” value [1] of the same molecule?
The value was “did not inhibit”.

And the IC50 ([1]; IC50)?
Its IC50 is 20 µM.

What about the IC50 ([1]; Selected assay results (IC50)) of the same molecule?
Its IC50 is 20.4 µM and > 100 µM.

And the “toxic effects in the animals (in words)” value ([3]; Swiss-Webster)?
The value was “toxic effects similar to FI-2”.

What about the “Reduction of fluid accumulation” value [3] of the same molecule?
Its value is “No”.

What about the Toxicity [3] of the same molecule?
The Toxicity was “Yes”.

What about the “accumulation of intestinal fluid after experimental infection with CT (in words)” value [3] of the same molecule?
Its value is “did not cause a reduction in fluid accumulation”.

With `COc1cccc(C2=CC(=O)CC(c3ccc(F)cc3)C2)c1` (centres unmarked) [FI-2, 5-(4-Fluoro-phenyl)-3-(3-methoxy-phenyl)-cyclohex-2-enone] as the molecule, how does the “inhibition of EF / Edema Toxin induced cAMP production (in words)” value [1] read?
The value was “cAMP inhibitory activity”.

What about the IC50 ([1]; IC50) of the same molecule?
Its IC50 is 28 µM.

What about the IC50 ([1]; Selected assay results (IC50)) of the same molecule?
Its IC50 is 21.4 µM and 27.3 µM.

And the “cytotoxicity in LDH assay (in words)” value [2]?
Its value is “minimal cytotoxic effect”.

What about the “toxic effects in the animals (in words)” value ([3]; Swiss-Webster) of the same molecule?
Its value is “number of animals surviving the full 6 hour of the incubation was reduced by half”.

And the “Reduction of fluid accumulation” value [3]?
Its value is “Yes”.

And the Toxicity [3]?
The Toxicity was “No”.

And the “toxic effects in the animals (in words)” value [3]?
The value was “highly toxic”.

Which “inhibition of cholera toxin induced cAMP (in words)” value [4] does the source give for `COc1cccc(C2=C(C)C(=O)CC2)n1` [FI-3, 3-(6-Methoxy-pyridin-2-yl)-2-methyl-cyclopent-2-enone] here?
Its value is “most consistently been active; also recorded: inhibits cholera toxin induced cAMP, but not quite as well as PGE2-imidazole”.

And the “inhibition of EF / Edema Toxin induced cAMP production (in words)” value [1]?
Its value is “most consistently been active; also recorded: dose-dependent activity and reduced extracellular cAMP accumulation”.

And the IC50 ([1]; Selected assay results (IC50))?
Its IC50 is 38.8 µM and 64.1 µM and 11.1 µM and 29.4 µM.

What about the IC50 ([1]; read-out: IC50) of the same molecule?
The IC50 was 30 µM.

And the IC50 ([1]; read-out: Selected assay results (IC50))?
The IC50 was 29.9 µM.

And the “toxic effects in the animals (in words)” value ([3]; Swiss-Webster)?
The value was “several animals treated with the CT+FI-3 mixture died”.

What about the “Reduction of fluid accumulation” value [3] of the same molecule?
The value was “Yes”.

And the “toxic effects in the animals (in words)” value [3]?
Its value is “displayed edema, blood and fluid accumulation”.

With `COc1cccc(C2=CC(=O)CCC2)n1` [FI-9, 3-(6-Methoxy-pyridin-2-yl)-cyclohex-2-enone] as the molecule, how does the “inhibition of EF / Edema Toxin induced cAMP production (in words)” value [1] read?
Its value is “not active”.

Which “inhibition of EF / Edema Toxin induced cAMP production (in words)” value [1] does the source give for `COc1ccc(C2=C(C)C(=O)CC2)cn1` [FI-14, 3-(6-Methoxy-pyridin-3-yl)-2-methyl-cyclopent-2-enone] here?
Its value is “good activity”.

And the IC50 ([1]; read-out: IC-50)?
Its IC50 is 24 µM.

Which IC50 ([1]; read-out: IC-50) does the source give for `COc1cccc(C2=CC(=O)CCC2)c1` [FI-15, 3-(3-Methoxy-phenyl)-cyclohex-2-enone] here?
The IC50 was 30 µM.

With `O=C1C=C(c2ccc3[nH]ccc3c2)CCC1` [FI-17, 3-(1H-Indol-5-yl)-cyclohex-2-enone] as the molecule, how does the “inhibition of EF / Edema Toxin induced cAMP production (in words)” value [1] read?
Its value is “comparable activity to the best compounds”.

And the IC50 ([1]; read-out: IC-50)?
The IC50 was 56 µM.

With `O=C1C=C(c2ccc3c(c2)OCO3)CCC1` [FI-18, 3-Benzo[1,3]dioxol-5-yl-cyclohex-2-enone] as the molecule, how does the IC50 ([1]; read-out: IC-50) read?
The IC50 was 53 µM.

Which results are given for `COc1cccc(C2=C(C)C(=O)CC2)n1` [FI-21, 3-(6-Methoxy-pyridin-2-yl)-2-methyl-cyclopent-2-enone]?
inhibition of EF / Edema Toxin induced cAMP production (in words) [1]: good activity; IC50 ([1]; read-out: IC-50): 30 µM

With `COc1ccccc1C1=CC(=O)CCC1` [FI-27, 3-(2-Methoxy-phenyl)-cyclohex-2-enone] as the molecule, how does the IC50 ([1]; read-out: IC-50) read?
The IC50 was 35 µM.

With `O=C(O)c1ccc(/N=C/c2c3ccccc3cc3ccccc23)cc1O` [FIII-1, 4-[(Anthracen-9-ylmethylene)-amino]-2-hydroxy-benzoic acid] as the molecule, how does the “inhibition of EF / Edema Toxin induced cAMP production (in words)” value [1] read?
Its value is “more active than PGE2-imidazole”.

What about the IC50 ([1]; read-out: IC50 values) of the same molecule?
Its IC50 is 9 µM.

With `COc1ccc(C(=O)O)cc1NC(=O)c1cccc2c1C(=O)c1ccccc1-2` [FIV-1, 4-Methoxy-3-[(9-oxo-9H-fluorene-1-carbonyl)-amino]-benzoic acid] as the molecule, how does the IC50 ([1]; IC50) read?
The IC50 was 5.8 µM.

For `O=C(O)c1cc(NC(=O)c2cccc3c2C(=O)c2ccccc2-3)ccc1O` [FIV-35, 2-Hydroxy-5-[(9-oxo-9H-fluorene-1-carbonyl)-amino]-benzoic acid], which IC50 ([1]; IC50) is on record?
The IC50 was 6.2 µM.

With `O=C(O)c1cccc(NC(=O)c2cccc3c2C(=O)c2ccccc2-3)c1O` [FIV-39, 2-Hydroxy-3-[(9-oxo-9H-fluorene-1-carbonyl)-amino]-benzoic acid] as the molecule, how does the IC50 ([1]; IC50) read?
The IC50 was 5.6 µM.

With `O=C(O)c1cccc(NC(=O)c2cccc3c2C(=O)c2ccccc2-3)c1` [FIV-50, 3-[(9-Oxo-9H-fluorene-1-carbonyl)-amino]-benzoic acid] as the molecule, how does the solubility [5] read?
The solubility was ≥ 100 mM.

What about the “inhibition of EF / Edema Toxin induced cAMP production (in words)” value [1] of the same molecule?
Its value is “extremely effective; also recorded: more active than PGE2-imidazole”.

What about the IC50 ([1]; IC50) of the same molecule?
Its IC50 is 1.7 to 9 µM.

And the IC50 ([1]; IC50 values)?
The IC50 was 1.7 to 5 µM.

And the IC50 ([1]; IC50 values, mean)?
Its IC50 is 4.74 µM.

And the IC50 ([1]; IC50 values, range)?
The IC50 was 0.291 to 12.3 µM.

And the “cytotoxicity in LDH assay (in words)” value [2]?
Its value is “no obvious cytotoxic effect”.

And the “effect on bacterial adherence (in words)” value [6]?
Its value is “Reduction in adherence was only observed in ETEC”.

What about the “Reduction of fluid accumulation” value [3] of the same molecule?
The value was “Yes”.

And the Toxicity [3]?
The Toxicity was “No”.

What about the “effect on bacterial adherence (in words)” value [7] of the same molecule?
The value was “no reduction in adherence”.

And the “differences in the number of bacteria recovered” value [8]?
Its value is 3 logs.

And the “effect on bacterial growth rate (in words)” value [9]?
Its value is “no effect on growth”.

Which IC50 ([1]; IC50) does the source give for `COC(=O)c1cccc(NC(=O)c2cccc3c2C(=O)c2ccccc2-3)c1C` [FIV-54, 2-Methyl-3-[(9-oxo-9H-fluorene-1-carbonyl)-amino]-benzoic acid methyl ester] here?
Its IC50 is 12.9 µM.

With `Cc1c(NC(=O)c2cccc3c2C(=O)c2ccccc2-3)cccc1C(=O)O` [FIV-55, 2-Methyl-3-[(9-oxo-9H-fluorene-1-carbonyl)-amino]-benzoic acid] as the molecule, how does the IC50 ([1]; IC50) read?
Its IC50 is 11.4 µM.

Which IC50 ([1]; IC50) does the source give for `COC(=O)c1ccc(OC)c(NC(=O)c2cccc3c2C(=O)c2ccccc2-3)c1` [FIV-58, 4-Methoxy-3-[(9-oxo-9H-fluorene-1-carbonyl)-amino]-benzoic acid methyl ester] here?
Its IC50 is 7.2 µM.

With `O=C(Nc1ccc(F)c(Cl)c1)c1cccc2c1C(=O)c1ccccc1-2` [FIV-60, 9-Oxo-9H-fluorene-1-carboxylic acid (3-chloro-4-fluoro-phenyl)-amide] as the molecule, how does the IC50 ([1]; IC50) read?
The IC50 was 3.8 µM.

Which IC50 ([1]; IC50) does the source give for `O=C(Nc1ccccc1)c1cccc2c1C(=O)c1ccccc1-2` [FIV-61, 9-Oxo-9H-fluorene-1-carboxylic acid phenylamide] here?
The IC50 was 28.6 µM.

Which IC50 ([1]; IC50) does the source give for `CN(C)c1cccc(NC(=O)c2cccc3c2C(=O)c2ccccc2-3)c1` [FIV-65, 9-Oxo-9H-fluorene-1-carboxylic acid (3-dimethylamino-phenyl)-amide] here?
Its IC50 is 1.5 µM.

With `O=C(Nc1cccc(OC(F)(F)F)c1)c1cccc2c1C(=O)c1ccccc1-2` [FIV-67, 9-Oxo-9H-fluorene-1-carboxylic acid (3-trifluoromethoxy-phenyl)-amide] as the molecule, how does the IC50 ([1]; IC50) read?
The IC50 was 6.9 µM.

For `N=C(N)c1cccc(NC(=O)c2cccc3c2C(=O)c2ccccc2-3)c1` [FIV-68, 9-Oxo-9H-fluorene-1-carboxylic acid (3-carbamimidoyl-phenyl)-amide], which IC50 ([1]; IC50) is on record?
The IC50 was 2.71 µM.

With `N#Cc1ccc(NC(=O)c2cccc3c2C(=O)c2ccccc2-3)c(Cl)c1` [FIV-70, 9-Oxo-9H-fluorene-1-carboxylic acid (2-chloro-4-cyano-phenyl)-amide] as the molecule, how does the IC50 ([1]; IC50) read?
Its IC50 is 50 µM.
